Results: publication PMC8041284, “Tunable Methacrylamides for Covalent Ligand Directed Release Chemistry” (Journal of the American Chemical Society, 2021)
Read-outs that look alike come from different tables or passages of the source.

Biological target: BTK (Homo sapiens, UniProt Q06187)
Assay: biochemical
[1] = read-out: BTK inhibition (%), 0.75 uM BTK, […] probe 3l, 15 min preincubation

Chain of BTK (Q06187 402-655 limits assumed): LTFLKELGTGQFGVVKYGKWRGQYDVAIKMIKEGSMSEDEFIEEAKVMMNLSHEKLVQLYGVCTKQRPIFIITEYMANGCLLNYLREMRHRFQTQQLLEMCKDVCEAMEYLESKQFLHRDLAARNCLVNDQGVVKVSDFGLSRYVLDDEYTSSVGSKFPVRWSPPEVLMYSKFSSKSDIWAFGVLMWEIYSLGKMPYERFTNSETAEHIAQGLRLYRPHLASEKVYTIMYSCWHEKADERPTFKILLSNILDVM

Row | SMILES | inhibition at 10 µM [1] | inhibition at 10 µM (read-out: BTK inhibition (%))
1 | Nc1c2c(nc3ccccc13)CCCC2 [PCM-0064528] | -7.8% | 
2 | CCCCCC1=C(C)CCC1=O [PCM-0216102] | -16.2% | 
3 | CC1=C(CC(=O)O)c2cc(F)ccc2/C1=C\c1ccc([S+](C)[O-])cc1 (stereo not drawn) [PCM-0065451] | 8.3% | 
4 | COc1ccccc1Oc1c(NS(=O)(=O)c2ccc(C(C)(C)C)cc2)nc(-c2ncccn2)nc1OCCO [PCM-0086316] | -7.8% | 
5 | COC1=CC(=O)c2ccccc2C1=O [PCM-0214886] | 85.6% | 
6 | O=C1N=C(O)CN1/N=C/c1ccc(-c2ccc([N+](=O)[O-])cc2)o1 [PCM-0086748] | 28% | 
7 | C[C@@H]1CC[C@@]2(OC1)O[C@H]1C[C@H]3[C@@H]4CC=C5C[C@@H](O[C@@H]6O[C@H](CO)[C@@H](O[C@@H]7O[C@@H](CO)[C@H](O)[C@H]7O)[C@H](O)[C@H]6O[C@@H]6O[C@@H](C)[C@H](O)[C@@H](O)[C@H]6O)CC[C@]5(C)[C@H]4CC[C@]3(C)[C@H]1[C@@H]2C [PCM-0216403] | -10% | 
8 | NC(=O)c1ncn([C@@H]2O[C@H](CO)[C@@H](O)[C@H]2O)c1N [PCM-0095118] | 4.8% | 
9 | O=S(=O)(CC1CS1)c1ccc(Oc2ccccc2)cc1 (stereo not drawn) [PCM-0095742] | 20.8% | 
10 | C[C@]12CCC(=O)C(O)=C1CC[C@@H]1[C@@H]2CC[C@]2(C)C(=O)CC[C@@H]12 [PCM-0214668] |  | -1.4%
11 | CO[C@H]1C[C@H](O[C@@H]2/C(C)=C/C[C@@H]3C[C@@H](C[C@]4(CC[C@H](C)[C@@H](C5CCCCC5)O4)O3)OC(=O)[C@@H]3C=C(C)/C(=N/O)[C@H]4OC/C(=C\C=C\[C@@H]2C)[C@]43O)O[C@@H](C)[C@@H]1O [PCM-0216231] | 41.7% | 
12 | CC(C)(C(=O)O)c1ccc(C(O)CCCN2CCC(C(O)(c3ccccc3)c3ccccc3)CC2)cc1 (stereo not drawn) [PCM-0065056] | -10.3% | 
13 | Cc1ccc(C=NNC(=O)c2ccccc2Oc2ccccc2)o1 [PCM-0215777] | -16.2% | 
14 | C[C@]12C=CC(=O)C=C1CC[C@H]1[C@@H]3C[C@@H](O)[C@](O)(C(=O)CO)[C@@]3(C)C[C@H](O)[C@@]12F [PCM-0064944] | 2.1% | 
15 | CC(=O)Nc1ccc(C(=O)Nc2ccccc2N)cc1 [PCM-0095432] | -17.1% | 
16 | O=c1cc(-c2ccccc2)oc2cc(O[C@@H]3O[C@H](CO[C@@H]4O[C@H](CO)[C@@H](O)[C@H](O)[C@H]4O)[C@@H](O)[C@H](O)[C@H]3O)c(O)c(O)c12 [PCM-0216453] | 30.9% | 
17 | CC1=C(CC[C@@H](C)CO[C@@H]2O[C@H](CO)[C@@H](O)[C@H](O)[C@H]2O)O[C@H]2C[C@H]3[C@@H]4CC=C5C[C@@H](O[C@@H]6O[C@H](CO)[C@@H](O[C@@H]7O[C@@H](C)[C@H](O)[C@@H](O)[C@H]7O)[C@H](O)[C@H]6O[C@@H]6O[C@@H](C)[C@H](O)[C@@H](O)[C@H]6O)CC[C@]5(C)[C@H]4CC[C@]3(C)[C@@H]12 [PCM-0216365] | -11.9% | 
18 | CCC[C@@H]1C[C@@H](C(=O)N[C@@H]([C@H]2O[C@H](SC)[C@H](O)[C@@H](O)[C@H]2O)[C@@H](C)O)N(C)C1 [PCM-0095227] | -4.7% | 
19 | O=C(c1ccc(C(=O)N2CCC(N3CCCC3)CC2)c(Nc2ccccc2)c1)N1CCC(N2CCCC2)CC1 [PCM-0095781] | -10.8% | 
20 | C[C@H](CCC(=O)O)[C@H]1CC[C@H]2[C@@H]3C[C@H](O)[C@@H]4C[C@H](O)CC[C@]4(C)[C@H]3CC[C@]12C [PCM-0214678] | 3.9% | 
21 | COC(=O)/C=C/c1ccc(O)cc1 [PCM-0214996] | 0% | 
22 | C[C@H]1[C@H](NC(=O)/C(=N\OC(C)(C)C(=O)O)c2csc(N)n2)C(=O)N1S(=O)(=O)O [PCM-0085816] | -15.6% | 

Row | SMILES | inhibition at 10 µM [1] | inhibition at 10 µM (read-out: BTK inhibition (%))
23 | CSCCNc1nc(SCCC(F)(F)F)nc2c1ncn2[C@@H]1O[C@H](COP(=O)(O)OP(=O)(O)C(Cl)(Cl)P(=O)(O)O)[C@@H](O)[C@H]1O [PCM-0215886] | -50.2% | 
24 | COC1=C2C[C@@H](C)C[C@H](OC)[C@H](O)[C@@H](C)/C=C(\C)[C@H](OC(N)=O)[C@@H](OC)/C=C\C=C(/C)C(=O)NC(=CC1=O)C2=O [PCM-0095416] | 0% | 
25 | COc1cccc(OC)c1C(=O)OCc1cc(O)ccc1O[C@@H]1O[C@H](CO)[C@@H](O)[C@H](O)[C@H]1O [PCM-0216173] | 0% | 
26 | CC(C)CCn1c(CN2CCN(C(=O)C3CC3)CC2)nc2c1c(=O)n(C)c(=O)n2C [PCM-0215566] | -13.9% | 
27 | CC(C)(CCCCCC(O)CCCCCC(C)(C)C(=O)O)C(=O)O [PCM-0215634] | 0.7% | 
28 | C/C(=C\CNc1ncnc2c1ncn2[C@@H]1O[C@H](CO)[C@@H](O)[C@H]1O)CO [PCM-0216644] | 0.8% | 
29 | Cc1c(C(C)C)c(=O)n(-c2ccccc2)n1C [PCM-0216024] | -11.7% | 
30 | OC[C@@H](O)C(O)[C@@H](O)CO (stereo partly drawn) [PCM-0090917] | 2.3% | 
31 | CCNC(=O)Nc1ccc(-c2nc3c(c(N4CCOC[C@@H]4C)n2)CCN(C2COC2)C3)cc1 [PCM-0095629] | 3.4% | 
32 | CC1=C(C(=O)OC(C)C)C(c2cccc([N+](=O)[O-])c2)C(C(=O)OC2CN(C(c3ccccc3)c3ccccc3)C2)=C(N)N1 (stereo not drawn) [PCM-0095544] | 70% | 
33 | COC(=O)N[C@H](C(=O)N1CC2(CC2)C[C@H]1c1ncc(-c2ccc3c(c2)C(F)(F)c2cc(-c4ccc5nc([C@@H]6[C@H]7CC[C@H](C7)N6C(=O)[C@@H](NC(=O)OC)C(C)C)[nH]c5c4)ccc2-3)[nH]1)C(C)C [PCM-0215396] | 74.9% | 
34 | O=S(=O)(NC1CCCCC1)c1ccc2c(c1)C(=NO)c1cc(S(=O)(=O)NC3CCCCC3)ccc1-2 [PCM-0215862] | 1.5% | 
35 | CNCCCC12CCC(c3ccccc31)c1ccccc12 [PCM-0064754] | 11.7% | 
36 | COc1ccc(-c2coc3cc(O)ccc3c2=O)cc1 [PCM-0087244] | 0.8% | 
37 | CC(C)c1c2cc(-c3ccnc(NC4CCC(NC5CCOCC5)CC4)n3)ccc2nn1C (stereo not drawn) [PCM-0215782] | 3.4% | 
38 | C=C(C(=O)O)[C@@H]1CC[C@@H](C)[C@@H]2CCC(C)=C[C@@H]21 [PCM-0216417] | 0% | 
39 | CC1(C)C=C(CN2C/C(=C\c3ccc(F)cc3)C(=O)/C(=C/c3ccc(F)cc3)C2)C(C)(C)N1O [PCM-0095780] | 9.3% | 
40 | CONC(=O)c1ccccc1Nc1cc(Nc2cc(C)nn2C(C)C)ncc1Cl [PCM-0215811] | -10.3% | 
41 | C1=C/COCc2cc(ccc2OCCN2CCCC2)Nc2nccc(n2)-c2cccc(c2)COC/1 [PCM-0215268] | 71.7% | 
42 | C1=C2CCCN[C@H]2[C@@H]2C[C@H]1[C@H]1CCCCN1C2 [PCM-0095306] | -2.6% | 
43 | CC(=O)OCCc1ccc(O)c(O)c1 [PCM-0214986] | -9.7% | 
44 | O=S(=O)(O)NC1CCCCC1 [PCM-0090618] | 3.9% | 

Row | SMILES | inhibition at 10 µM [1] | inhibition at 10 µM (read-out: BTK inhibition (%))
45 | O=C1C[C@@H](c2ccc(O)c(O)c2)Oc2cc(O)cc(O)c21 [PCM-0216409] | 29.3% | 
46 | O=C(Nc1ccc(O)c(C(=O)O)c1)c1cccc(NC(=O)c2ccco2)c1 [PCM-0215939] | -8.5% | 
47 | CCCCCCCCC/C(=C\C1=C(C)C(=O)C(OC)=C(OC)C1=O)C(=O)O [PCM-0215484] | -13.9% | 
48 | C[C@@H]1O[C@@H](O[C@H]2[C@H](Oc3c(-c4ccc(O)cc4)oc4cc(O)cc(O)c4c3=O)O[C@H](CO)[C@@H](O)[C@@H]2O)[C@H](O)[C@H](O)[C@H]1O [PCM-0216179] | -1.7% | 
49 | Cc1onc(-c2ccccc2)c1C(=O)N[C@@H]1C(=O)N2[C@@H]1SC(C)(C)[C@@H]2C(=O)O [PCM-0215187] | 21.3% | 
50 | O=C(CO)[C@@H](O)[C@H](O)[C@@H](O)CO [PCM-0216101] | -4.3% | 
51 | Nc1ncnc2c1ncn2[C@@H]1O[C@H](CO)C[C@H]1O [PCM-0101885] | 42% | 
52 | O=C(O)C[C@H](O)C[C@H](O)/C=C/c1c(C2CC2)nc2ccccc2c1-c1ccc(F)cc1 [PCM-0095199] | -36.6% | 
53 | CC(COc1ccccc1Cc1ccccc1)N1CCCCC1 (stereo not drawn) [PCM-0216136] | -17% | 
54 | C=CC(=O)N1CCN(CCCn2c(=O)c(-c3c(Cl)c(OC)cc(OC)c3Cl)cc3cnc(NC)nc32)CC1 [PCM-0215863] | 6.2% | 
55 | CCCC1O[C@@H]2C[C@H]3[C@@H]4CCC5=CC(=O)C=C[C@]5(C)[C@H]4[C@@H](O)C[C@]3(C)[C@]2(C(=O)CO)O1 (stereo partly drawn) [PCM-0214610] | -13.1% | 
56 | COc1cccc(Nc2c(C(N)=O)cnc3c(C)cc(S(=O)(=O)c4cccc(C(=O)N(C)C)c4)cc23)c1 [PCM-0095466] | 0% | 
57 | CC1(C)CC[C@]2(C(=O)O)CCC3=C(CC[C@@H]4[C@@]5(C)C[C@H](O)[C@H](O)[C@@](C)(C(=O)O)[C@@H]5CC[C@@]34C)[C@@H]2C1 [PCM-0216490] | 10.8% | 
58 | NC(=O)c1nc(F)c[nH]c1=O [PCM-0215543] | -6.2% | 
59 | COc1ccc(CCNCc2ccc(OCc3ccc(Cl)nc3)c(OC)c2)cc1OC [PCM-0215426] | -27.6% | 
60 | C[C@@H]1CC[C@H]2C(C)(C)C3CC12CC[C@@]3(C)O (stereo partly drawn) [PCM-0215144] | 8.6% | 
61 | C=CCn1c(=O)c2cnc(Nc3ccc(N4CCN(C)CC4)cc3)nc2n1-c1cccc(C(C)(C)O)n1 [PCM-0095195] | 37.2% | 
62 | COc1ccc(CCC(=O)c2c(O)cc(O[C@@H]3O[C@H](CO)[C@@H](O)[C@H](O)[C@H]3O[C@@H]3O[C@@H](C)[C@H](O)[C@@H](O)[C@H]3O)cc2O)cc1O [PCM-0094869] | 9.3% | 
63 | COc1ccc(-c2oc3cc(O)cc(O)c3c(=O)c2O)cc1 [PCM-0215098] | 5.5% | 
64 | CC(C)=C[C@H]1C[C@](C)(O)[C@@H]2[C@H]3CC[C@@H]4[C@@]5(C)CC[C@H](O[C@@H]6OC[C@H](O)[C@H](O[C@@H]7O[C@H](CO)[C@@H](O)[C@H](O)[C@H]7O[C@@H]7OC[C@@H](O)[C@H](O)[C@H]7O)[C@H]6O[C@@H]6O[C@@H](C)[C@H](O)[C@@H](O)[C@H]6O)C(C)(C)[C@@H]5CC[C@@]4(C)[C@@]34CO[C@@]2(C4)O1 [PCM-0216470] | 10% | 
65 | COC(=O)[C@H](CCSC)NC(=O)c1ccc(NC[C@@H](N)CS)cc1-c1ccccc1 [PCM-0215424] | -57.9% | 
66 | CNC(=O)c1cc(Oc2ccc(NC(=O)Nc3ccc(Cl)c(C(F)(F)F)c3)c(F)c2)ccn1 [PCM-0095050] | 13.1% | 
